# Like-named read-outs stand apart in the source and are kept apart here.
# Tested on: HCV subgenomic replication
# Assay: Cell based HCV replication assay (subgenomic replicon in Huh-7 cells, NS3 Cell-ELISA)
# Conditions: activity ranges
# Summary of the method: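 Huh-7 cells stably carrying the I377neo/NS3-3′/wt subgenomic replicon, seeded at 10^4 cells/well in DMEM/10% FCS and exposed to inhibitor for 96 h. NS3 expression was measured by Cell-ELISA (mAb 10E5/24, alkaline phosphatase, absorbance 405/620 nm), in duplicate. IC50 was fitted to the Hill equation, with background from parental Huh-7 cells.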
# [1] = Table 1, 16 membered macrocycles, read-out: IC50* (nM), Inhibition of HCV subgenomic replication
# [2] = Table 2, various macrocycles, read-out: IC50* (nM), Inhibition of HCV subgenomic replication
# [3] = Table A, Huh-7 replicon cells, 96 hours, read-out: IC50 (nM), Inhibition of HCV subgenomic replication
# [4] = Table 5, various macrocycles, read-out: IC50* (nM), Inhibition of HCV subgenomic replication
# [5] = Table 4, various macrocycles, read-out: IC50* (nM), Inhibition of HCV subgenomic replication
# [6] = Hepatitis C virus, Huh-7, Table 3, various macrocycles, read-out: IC50* (nM), Inhibition of HCV subgenomic replication
smiles,measurement,setting,value
"CN1CCCN(C)S(=O)(=O)NC(=O)c2ccc3c(C4CCCCC4)c4n(c3c2)CC(CC1)COc1ccccc1-4 (stereo not shown) [Example 101, 14-cyclohexyl-18,22-dimethyl-7,8-dihydro-6H-7,11-(ethanoiminopropanoiminothioiminomethano)indolo[1,2-e][1,5]benzoxazocin-15-one 17,17-dioxide]",IC50,[1],25 to 150 nM
"CCN1CCN(C)[C@H]2COc3cc(C)ccc3-c3c(C4CCCCC4)c4ccc(cc4n3C2)C(=O)NS(=O)(=O)N(C)CC1 [Example 215, (7R)-14-cyclohexyl-21-ethyl-3,18,24-trimethyl-7,8-dihydro-6H-7,11-(epiminoethanoiminoethanoiminothioiminomethano)-indolo[1,2-e][1,5]benzoxazocin-15-one 17,17-dioxide]",IC50,[2],< 25 nM
"COc1ccc2c(c1)OC[C@@H]1CCN(C)C3CCN(CC3)S(=O)(=O)NC(=O)c3ccc4c(C5CCCCC5)c-2n(c4c3)C1 [Example 523, (20R)-30-cyclohexyl-15-methoxy-23-methyl-18-oxa-2-thia-1,3,10,23-tetraazahexacyclo[22.2.2.1^5,9.1^8,11.1^10,20.0^12,17]hentriaconta-5(31),6,8,11(30),12,14,16-heptaen-4-one 2,2-dioxide]",IC50,"Hepatitis C virus, Huh-7, Table 5, various macrocycles, read-out: IC50* (nM), Inhibition of HCV subgenomic replication",< 25 nM
"CCCc1cccc2c1OC[C@H]1Cn3c-2c(C2CCCCC2)c2ccc(cc23)C(=O)NS(=O)(=O)N(C)CCN(CC)CCN1C [Compound A22, (7R)-14-cyclohexyl-21-ethyl-18,24-dimethyl-4-propyl-7,8-dihydro-6H-7,11-(epiminoethanoiminoethanoiminothioiminomethano)indolo[1,2-e][1,5]benzoxazocin-15-one 17,17-dioxide]",IC50,[3],25 to 150 nM
"CN1CCN(C)[C@H]2COc3ccccc3-c3c(C4CCCC4)c4ccc(cc4n3C2)C(=O)NS(=O)(=O)N(C)CC1 [Example 518, (7R)-14-cyclopentyl-18,21,24-trimethyl-7,8-dihydro-6H-7,11-(epiminoethanoiminoethanoiminothioiminomethano)-indolo[1,2-e][1,5]benzoxazocin-15-one 17,17-dioxide]",IC50,[4],< 25 nM
"Cc1cccc2c1OCC1Cn3c-2c(C2CCCCC2)c2ccc(cc23)C(=O)NS(=O)(=O)N(C)CCN(Cc2cnn(C)c2)CCN1C [Example 517, (7R)-14-cyclohexyl-4,18,24-trimethyl-21-[(1-methyl-1H-pyrazol-4-yl)methyl]-7,8-dihydro-6H-7,11-(epiminoethanoiminoethanoiminothioiminomethano)-indolo[1,2-e][1,5]benzoxazocin-15-one 17,17-dioxide]",IC50,[4],< 25 nM
"CCN1CCN(C)C2COc3c(CN4CCCCC4)cccc3-c3c(C4CCCCC4)c4ccc(cc4n3C2)C(=O)NS(=O)(=O)N(C)CC1 [Compound A26, (7R)-14-cyclohexyl-21-ethyl-18,24-dimethyl-4-(piperidin-1-ylmethyl)-7,8-dihydro-6H-7,11-(epiminoethanoiminoethanoiminothioiminomethano)indolo[1,2-e][1,5]benzoxazocin-15-one 17,17-dioxide]",IC50,[3],< 25 nM
"CCN1CCN(C)C2COc3cc(OC)ccc3-c3c(C4CCCCC4)c4ccc(cc4n3C2)C(=O)NS(=O)(=O)N(C)CC1 [Example 210, (7R)-14-cyclohexyl-21-ethyl-3-methoxy-18,24-dimethyl-7,8-dihydro-6H-7,11-(epiminoethanoiminoethanoiminothioiminomethano)-indolo[1,2-e][1,5]benzoxazocin-15-one 17,17-dioxide]",IC50,[2],< 25 nM
"CN1CCN(CC(N)=O)C2COc3ccccc3-c3c(C4CCCCC4)c4ccc(cc4n3C2)C(=O)NS(=O)(=O)N(C)CC1 [Example 408, 2-[(7R)-14-cyclohexyl-18,21-dimethyl-17,17-dioxido-15-oxo-7,8-dihydro-6H-7,11-(epiminoethanoiminoethanoiminothioiminomethano)-indolo[1,2-e][1,5]benzoxazocin-24-yl]acetamide]",IC50,[5],25 to 150 nM
"CN1CCN(C)[C@H]2COc3c(OCc4ccccc4)cccc3-c3c(C4CCCCC4)c4ccc(cc4n3C2)C(=O)NS(=O)(=O)N(C)CC1 [Example 411, (7R)-4-(benzyloxy)-14-cyclohexyl-18,21,24-trimethyl-7,8-dihydro-6H-7,11-(epiminoethanoiminoethanoiminothioiminomethano)-indolo[1,2-e][1,5]benzoxazocin-15-one 17,17-dioxide]",IC50,[5],25 to 150 nM
"CN1CCOCCN(C)S(=O)(=O)NC(=O)c2ccc3c(C4CCCCC4)c4n(c3c2)C[C@@H]1COc1ccccc1-4 [Compound A20, (7R)-14-cyclohexyl-18,24-dimethyl-7,8-dihydro-6H-7,11-(epiminoethanooxyethanoiminothioiminomethano)indolo[1,2-e][1,5]benzoxazocin-15-one 17,17-dioxide]",IC50,[3],25 to 150 nM
"CCN1CCN(C)[C@H]2COc3c(C)cccc3-c3c(C4CCCCC4)c4ccc(cc4n3C2)C(=O)NS(=O)(=O)N(C)CC1 [Compound A19, (7R)-14-cyclohexyl-21-ethyl-4,18,24-trimethyl-7,8-dihydro-6H-7,11-(epiminoethanoiminoethanoiminothioiminomethano)indolo[1,2-e][1,5]benzoxazocin-15-one 17,17-dioxide]",IC50,[3],< 25 nM
"CN1CCCC2COc3c(OCCN4CCCC4)cccc3-c3c(C4CCCCC4)c4ccc(cc4n3C2)C(=O)NS(=O)(=O)N(C)CC1 [Example 511, (7R)-14-cyclohexyl-18,21-dimethyl-4-(2-pyrrolidin-1-ylethoxy)-7,8-dihydro-6H-7,11-(propanoiminoethanoiminothioiminomethano)indolo[1,2-e][1,5]benzoxazocin-15-one 17,17-dioxide]",IC50,[4],< 25 nM
"CN1CCNCCN(C)S(=O)(=O)NC(=O)c2ccc3c(C4CCCCC4)c4n(c3c2)CC1COc1ccccc1-4 [Example 401, (7S)-14-cyclohexyl-18,24-dimethyl-7,8-dihydro-6H-7,11-(epiminoethanoiminoethanoiminothioiminomethano)-indolo[1,2-e][1,5]benzoxazocin-15-one 17,17-dioxide]",IC50,[5],25 to 150 nM
"CN1CCOC2COc3ccccc3-c3c(C4CCCCC4)c4ccc(cc4n3C2)C(=O)NS(=O)(=O)N(C)CC1 [Compound A7, (7S)-14-cyclohexyl-18,21-dimethyl-7,8-dihydro-6H-7,11-(epoxyethanoiminoethanoiminothioiminomethano)indolo[1,2-e][1,5]benzoxazocin-15-one 17,17-dioxide]",IC50,[3],25 to 150 nM
"CN1CCN2CCCC2CO[C@@H]2COc3ccccc3-c3c(C4CCCCC4)c4ccc(cc4n3C2)C(=O)NS1(=O)=O (stereo partly drawn) [Compound A17, (20S)-31-cyclohexyl-10-methyl-19,22-dioxa-9-thia-1,8,10,13-tetraazahexacyclo[18.9.1.1^2,6.1^3,29.0^13,17.0^23,28]dotriaconta-2(32),3,5,23,25,27,29(31)-heptaen-7-one 9,9-dioxide]",IC50,"Hepatitis C virus, Table A, Huh-7 replicon cells, 96 hours, read-out: IC50 (nM), Inhibition of HCV subgenomic replication",25 to 150 nM
"CN1C2CCN(CCN(C)S(=O)(=O)NC(=O)c3ccc4c(C5CCCCC5)c5n(c4c3)C[C@@H]1COc1ccccc1-5)C2 [Example 301, (18R)-29-cyclohexyl-10,17-dimethyl-20-oxa-9-thia-1,8,10,13,17-pentaazahexacyclo[16.9.1.1^2,6.1^3,27.1^13,16.0^21,26]hentriaconta-2(31),3,5,21,23,25,27(29)-heptaen-7-one 9,9-dioxide]",IC50,[6],< 25 nM
"CN1CCN2CCC(CC2)N(C)S(=O)(=O)NC(=O)c2ccc3c(C4CCCCC4)c4n(c3c2)C[C@@H]1COc1ccccc1-4 [Example 303, (5R)-31-cyclohexyl-4,24-dimethyl-7-oxa-23-thia-1,4,15,22,24-pentaazahexacyclo[23.2.2.1^5,15.1^14,17.1^16,20.0^8,13]dotriaconta-8,10,12,14(31),16(30),17,19-heptaen-21-one 23,23-dioxide]",IC50,[6],< 25 nM
"CN1CCOC2CCN(CC2)S(=O)(=O)NC(=O)c2ccc3c(C4CCCCC4)c4n(c3c2)C[C@@H]1COc1ccccc1-4 [Example 306, (20R)-31-cyclohexyl-21-methyl-18,24-dioxa-2-thia-1,3,10,21-tetraazahexacyclo[23.2.2.1^5,9.1^8,11.1^10,20.0^12,17]dotriaconta-5(32),6,8,11(31),12,14,16-heptaen-4-one 2,2-dioxide]",IC50,[6],150 to 500 nM
"Cc1cccc2c1OCC1Cn3c-2c(C2CCCCC2)c2ccc(cc23)C(=O)NS(=O)(=O)N(C)CCN(CC(=O)N(C)C)CCN1C [Example 514, 2-[(7R)-14-cyclohexyl-4,18,24-trimethyl-17,17-dioxido-15-oxo-7,8-dihydro-6H-7,11-(epiminoethanoiminoethanoiminothioiminomethano)-indolo[1,2-e][1,5]benzoxazocin-21-yl]-N,N-dimethylacetamide]",IC50,[4],< 25 nM
"CN1CCC(C)(C)CCN(C)S(=O)(=O)NC(=O)c2ccc3c(C4CCCCC4)c4n(c3c2)CC1COc1ccccc1-4 [Example 512, (7R)-14-cyclohexyl-18,21,21,24-tetramethyl-7,8-dihydro-6H-7,11-(epiminopentanoiminothioiminomethano)indolo[1,2-e][1,5]benzoxazocin-15-one 17,17-dioxide]",IC50,[4],150 to 500 nM
"CCN1CCN(C)C2COc3ccccc3-c3c(C4CCCCC4)c4ccc(cc4n3C2)C(=O)NS(=O)(=O)N(CCO)CC1 [Example 106, (7R)-14-cyclohexyl-21-ethyl-18-(2-hydroxyethyl)-24-methyl-7,8-dihydro-6H-7,11-(epiminoethanoiminoethanoiminothioiminomethano)-indolo[1,2-e][1,5]benzoxazocin-15-one 17,17-dioxide]",IC50,[1],< 25 nM
